Reference: PubChem BioAssay AID1996
In brackets after ≈: the same amount, converted by molar mass.

conditions: buffer; pH 7.4; 200.0 µM

SMILES | solubility kinetic [µg/mL]
CC1(C)CC(NC(=O)c2ccc(Cl)cc2)CC(C)(C)N1 | > 44.2
O=C(/C=C/c1c(F)cccc1Cl)NCCCN1CCOCC1 | > 49
COc1ccc(S(=O)(=O)NCc2ccccn2)cc1Br | > 53.6
Cc1cc(C)cc(N2C(=O)CSC2c2ccccn2)c1 (configuration not stated) | > 42.7
Cc1ccc(C(=O)NCC(=O)NCc2ccc(Cl)cc2)s1 | 7.4 (≈ 22.9 µM)
CC(Oc1ccc(-c2nnco2)cc1)C(=O)N1CCOCC1 (configuration not stated) | > 45.5
O=C(O)CCCCCNS(=O)(=O)c1ccc2c(c1)OCCO2 | > 49.4
CCn1c(=S)[nH]c2cc(Cl)ccc21 | > 31.9
CC1(c2ccc(OCC(N)=O)cc2)NC(=O)NC1=O (configuration not stated) | 35.7 (≈ 136 µM)
COc1ccccc1NC(=O)c1cccc2c(Br)cccc12 | < 0.8
COc1cc(C=O)ccc1OCc1ccncc1 | 35.2 (≈ 145 µM)
Clc1ccc2scc(CN3CCCC3)c2c1 | 35.3 (≈ 140 µM)
CC(=O)NC(Cc1ccc(O)cc1)C(=O)NN (configuration not stated) | > 35.6
Cc1nc2ccccc2[nH]c1=O | > 24
NC(=O)NCC(c1ccccc1)C1CCCCC1 (configuration not stated) | 33.4 (≈ 136 µM)
C=C(C)CN1C(=O)C(=O)N(CC(=C)C)C1=O | > 33.3
O=C(Nc1cccc2cccnc12)c1ccc(Cl)cc1 | < 0.3
CCC1CCCCN1CC(=O)c1c(C)[nH]c2ccc(OC)cc12 (configuration not stated) | 35 (≈ 111 µM)
CC(=O)c1ccc(N2CCN(c3ncccn3)CC2)c([N+](=O)[O-])c1 | 39.2 (≈ 120 µM)
Cc1ccccc1CNC(=O)C(=O)Nc1nccs1 | 1.2 (≈ 4.36 µM)
c1cnc(-c2noc(CN3CCN(C4CCCC4)CC3)n2)cn1 | > 47.2
N/C(=N/OC(=O)c1ccccc1Cl)c1ncc([N+](=O)[O-])s1 | 1.3 (≈ 3.98 µM)

SMILES | solubility kinetic [µg/mL]
COc1ccc2c(c1)CC(=O)NC=C2 | > 28.4
CCCN(C(=O)Cc1coc2cc(OC)ccc12)C1CCS(=O)(=O)C1 (configuration not stated) | > 54.8
Cc1cccc(NC(=S)N(C)C)c1C | > 31.2
O=C(CCC(=O)OCC(F)(F)C(F)F)Nc1ccccc1F | > 48.8
CC(C)NC(=O)C(=O)Nc1cc2c3c(c1)C(C)C(=O)N3CCC2 (configuration not stated) | 44.6 (≈ 141 µM)
CNC(=O)C(=O)NCCCN1CCOCC1 | > 34.4
O=C(NCCCn1ccnc1)c1ccc(OCC(F)(F)F)cc1 | 43.4 (≈ 133 µM)
CCn1c2ccccc2c2cc(CC(N)=O)ccc21 | 8 (≈ 31.7 µM)
CCc1ccc(NC(=O)c2[nH]c(C)c(C(C)=O)c2C)cc1 | 5.1 (≈ 17.9 µM)
CCOc1cc(CNc2ccc(N3CCCC3)cc2)cc(Cl)c1OC | < 0.4
COc1ccccc1NC(=O)COc1ccccc1C(=O)Nc1ccccc1 | 5.9 (≈ 15.7 µM)
CN(C)C(=O)c1ccc(OCC(F)(F)F)nc1 | 36.7 (≈ 148 µM)
COc1ccc(O)c(/C=C2/SC(=S)N(Cc3ccccc3)C2=O)c1 | < 0.8
COc1ccc2c(c1)C(=O)N(c1ccc(C)cc1C)C(=O)C2(C)C | 5.3 (≈ 16.4 µM)
Cc1ccccc1CN(C)C(C)C(=O)NCc1ccccc1 (configuration not stated) | 37.1 (≈ 125 µM)
CSc1nc2ccccc2c(=O)n1C1CCOC(C)(C)C1 (configuration not stated) | 28.4 (≈ 93.3 µM)
CC(=O)Nc1cccc(C(=O)OC2CCOC2=O)c1 (configuration not stated) | > 39.5
CCn1c(=O)n(CC)c2cc(NC(=O)c3ccccc3Cl)ccc21 | 50.4 (≈ 147 µM)
COCCCNc1nc(N)c([N+](=O)[O-])c(NCc2ccccc2)n1 | 7.4 (≈ 22.3 µM)
CCc1nc(N[C@H](C(=O)O)C(C)C)c2oc3ccccc3c2n1 | > 47
COc1ccc2[nH]cc(CCNC(=O)C3CCCCC3)c2c1 | 42.7 (≈ 142 µM)
O=C(O)CNC(=S)N(Cc1ccccc1Cl)C1CCCCC1 | 49.1 (≈ 144 µM)

SMILES | solubility kinetic [µg/mL]
O=C(Nc1nc(-c2ccc(Br)cc2)cs1)c1cccnc1 | < 0.3
CC(C)(C)C(=O)O/N=C(\N)COc1cccc(Cl)c1 | 25.4 (≈ 89.2 µM)
CC1(C)Cc2c(C#N)c(N)n(-c3ccccc3)c(=S)c2CO1 | > 46.7
COc1cc(S(=O)(=O)N2CCn3cccc3C2C)ccc1NC(C)=O (configuration not stated) | > 54.5
CN1CCN(C(=O)C23CCC(C)(C(=O)C2Br)C3(C)C)CC1 (configuration not stated) | > 53.6
CCOC(=O)Cn1cc(Cl)c(=O)c(Cl)c1 | 35.8 (≈ 143 µM)
O=C(CCNC(=O)c1ccco1)NCCc1c[nH]c2ccccc12 | 33.1 (≈ 102 µM)
CCCN1CCN(C(=S)Nc2sc(CC)cc2C(=O)OC)CC1 | 0.6 (≈ 1.69 µM)
O=C(Cn1c(=O)oc2ccccc21)Nc1ccc(Br)cc1 | 2.1 (≈ 6.05 µM)
Cc1cccc(NC(=O)NCC2CC2)c1 | > 30.6
COc1ccccc1C(=O)NCCNc1ccc([N+](=O)[O-])cc1Cl | 0.7 (≈ 2 µM)
O=C(CCC(=O)N1CCN(S(=O)(=O)c2ccc([N+](=O)[O-])cc2)CC1)N1CCOCC1 | > 66.1
O=C(CSc1c[nH]c2ccccc12)NC1CCCC1 | > 41.2
Cc1cc(N2CCOCC2)nc(C(C)C)n1 | 32.4 (≈ 146 µM)
COc1ccc(NC(=S)Nc2cc(C(F)(F)F)ccc2F)cc1 | 8.7 (≈ 25.3 µM)
CCN(C(=O)C12CC3CC(CC(C3)C1)C2)C1CCS(=O)(=O)C1 (configuration not stated) | > 48.8
C[C@@H](C(=O)Nc1nc2ccccc2s1)N1C(=O)C2CC=CCC2C1=O (some centres not stated) | 45.2 (≈ 127 µM)
O=C(NC1CCCCC1)c1cc(-c2ccccc2O)on1 | 0.6 (≈ 2.1 µM)
Cc1ccc(Nc2nc(N)nc(CCl)n2)cc1 | > 37.5
N=c1c2c(ncn1CCCO)Oc1cc(O)ccc1C2c1ccccc1 (configuration not stated) | 35.3 (≈ 101 µM)
O=C(OCC(=O)N1CCc2ccccc21)c1ccncc1 | 33.1 (≈ 117 µM)
CCCN1C(=O)C2(OCCO2)c2cc(Cl)ccc21 | > 40.2

SMILES | solubility kinetic [µg/mL]
COc1ccc(-n2c(C)nc3ccccc3c2=O)c([N+](=O)[O-])c1 | 39.4 (≈ 127 µM)
CC1CCN(C(=O)c2ccccc2NC(=O)Cc2ccccc2)CC1 | > 50.5
Cc1ccc(S(=O)(=O)N2CCCC2c2cccnc2)cc1 (configuration not stated) | > 45.4
CCCn1c(C(C)NS(=O)(=O)c2ccccc2)n[nH]c1=S (configuration not stated) | > 49
CC(=O)Nc1cccc(NC(=S)Nc2cccc(Cl)c2Cl)c1 | 26 (≈ 73.4 µM)
CNC(=S)Nc1ccc(C)c(NC(=S)NC)c1 | > 40.3
O=C(Oc1cc(=O)oc2c1c(=O)n1c3c(cccc23)CC1)c1ccccc1 | 33 (≈ 91.8 µM)
Cc1ccc(S(=O)(=O)NCCC(=O)NC2CCCCC2)cc1 | > 48.7
Cc1cc(C(=O)N2CCC(C(=O)O)CC2)c(C(F)(F)F)o1 | > 45.8
N#Cc1c(N)nc2c(c1-c1ccc(F)cc1)CCC2 | 3.7 (≈ 14.6 µM)
O=C1CN(C(=O)COc2ccc(F)cc2Cl)c2ccccc2N1 | > 50.2
O=C(Nc1nonc1-c1ccc(Cl)cc1)c1ccccc1 | 0.7 (≈ 2.34 µM)
CCOc1ccc(/C=C(\C#N)C(=O)Nc2ccccn2)cc1 | 2.7 (≈ 9.2 µM)
COc1ccccc1NC(=O)c1ccccc1Nc1ccccc1 | 0.5 (≈ 1.57 µM)
COc1ccc(OCC2NCCc3cc(OC)c(OC)cc32)cc1 (configuration not stated) | 42 (≈ 128 µM)
O=C(COc1ccccc1)N1CCN=C1SCc1ccc(F)cc1 | 6.4 (≈ 18.6 µM)
O=C(Nc1ccccc1C(=O)NCCCN1CCOCC1)c1ccc(F)cc1 | 55.4 (≈ 144 µM)
Cc1ccc(SCC(=O)c2c(C)nc3cc(C)ccn23)cc1 | 0.7 (≈ 2.25 µM)
CCc1ccc(OCC(=O)OCC(=O)NC2CCCC(C)C2C)cc1 (configuration not stated) | 9.2 (≈ 26.5 µM)
CC(=O)N1CCN(C(=O)c2ccc(Oc3ccccc3)cc2)CC1 | 46.6 (≈ 144 µM)
C[C@@H]1CN(Cc2nc(-c3cnccn3)no2)C[C@H](C)O1 | 30.8 (≈ 112 µM)
